The values that follow come from patent publication EP4413991A1, “PEPTIDE FOR COGNITIVE IMPROVEMENT” (Consejo Superior De Investigaciones Científicas, priority 2023, dated 2024).

What all share (type): in vivo, C57BL/6 mice
Test [1] concerns old mice (~20 months). Description: Novel object recognition test (NOR), memory index. The following applies: single intrahippocampal injection, versus vehicle; for recognition memory at short term: 2 hours after training trial; for recognition memory at long-term: 5 days after training trial. Here is the method:
(§1) Different experimental group of old mice (~20 months of age) were randomly injected on the hilus region of both brain hemispheres with vehicle (PBS or destillated water) or with one of four different molecules: Vitamin B12 (50 mg/ml; Vet one, ref: 510218), S-(5'-Adenosyl)-L-methionine chloride (0,25 mg/ml; Sigma, ref: A7007), folic acid (0,25 mg/ml; Sigma, ref: F7876-10G) or synthetic FRa binding peptide, peptide having amino acid sequence SEQ ID NO: 1, (2,5 mg/ml and 5 mg/ml, diluted in PBS; Abyntec). The pH of Vitamin B12, methionine or folic acid were adjusted to ~7 to avoid negative effects due to overly acidic medium. One week after intracerebral injections, mice were assessed with behavioural (open field trial) and memory tests (novel object recognition) to study potential functional effects of different metabolites on central nervous system. Two weeks after surgeries mice were finally perfused just after finalized Y maze test performing.
(§2) After anesthesia with isofluorane, mice were secured in a stereotaxic frame (Kopf). Holes were drilled bilaterally in the skull at the injection sites (one per hemisphere) by microdrill with 0.5 mm drill bit. Stereotaxic coordinates used for intrahippocampal injections were as follows (from bregma): anterior-posterior 2.2, lateral 1.4, dorsoventral 2.0. A 33-gauge needle Hamilton syringe coupled to a syring pump controller mounted to the stereotaxic frame was used to inject 2µl of vehicle or metabolites at each site. Injections occurred at a rate of 0.25 µl/min, after which the needle was left in place for an additional 3 min, stopping another 3 minute in the halfway. After injections were completed, the skin was sutured and the animals were allowed to recover for 1 h on a heating pad before returning to the home cage. Mice remained in the home cage for an additional 1 week before the start of behavioral testing, being sacrificed 2 weeks after surgery.
Both open field (OF) and novel object recognition (NOR) tests were performed as described previously (Rodríguez-Matellán A, et al., In Vivo Reprogramming Ameliorates Aging Features in Dentate Gyrus Cells and Improves Memory in Mice. Stem Cell Reports. 2020 Nov 10;15(5):1056-1066. ). Locomotor activity as well as anxiety and depression-like behaviours in old mice were evaluated using OF. This test was used as habituation of NOR test. In brief, on the first day, the mice were placed individually for 10 min in a 45x45-cm plastic box with vertical opaque walls. Each session was recorded and different data like distance, speed, immobile time and time on center square of the box were analysed with Anymaze software. On the second day, mice were placed in the same box for 5 min, allowing them to explore two identical objects: A and B (two black rooks). Both objects were placed on the long axis of the cage, each 13 cm from the cage end. After each exposure, the objects and the cage were wiped with 70% ethanol to eliminate odors which potentially could condition successive mice behaviour. Two hours after the familiarization trial, each mouse was released into the box with the same object previously used (object A) and a new one (object C, a tower of coloured plastic pieces), instead of the object B (short-term memory test). The position of object C was the same as that of object B in the familiarization trial. The mice were given 5 min to explore the box. Five days later, the mice were released again into the box, with object A in the same position and another new object (object D, a falcon tube filled with wood chips) in the same position of the object C in the previous test. Again, animals were allowed 5 min to explore the box (Long-term memory test). Animals were considered to show recognition when their head was <2 cm from the object.
The memory index (Ml) was used to measure recognition memory performance. […]

The test system of test [2] is GluN2B. Nature of the test: GluN2B immunoreactivity in molecular layer of dentate gyrus. The following applies: single intrahippocampal injection, versus vehicle. Here is the method:
as §1
After anesthesia with isofluorane, mice were secured in a stereotaxic frame (Kopf). Holes were drilled bilaterally in the skull at the injection sites (one per hemisphere) by microdrill with 0.5 mm drill bit. […]
For GluN2B antibodies, the quantification was carried out with the imaged program by measuring the percentage of area occupied by the receptor immunoreactivity in the molecular layer of dentate gyrus. […]

In test [3] the test system is perineuronal nets (PNN). Nature of the test: Perineuronal nets (PNN) density labeled with WFA in dentate gyrus. The following applies: single intrahippocampal injection, versus vehicle-injected aged mice. The method, then:
as §1, with “Two weeks after surgeries mice were finally perfused just after finalized Y maze test performing.” left out
(§3) Quantifications for density of DCX/Blbp/CIdU-immunoreactive positive cells were performed by counting in four different consecutive medial brain sections the number of cells localized in each whole DG (distinguishing between SGZ and GCL) and the adjacent hilus region. For perineuronal nets of extracellular matrix, positive units labelled with WFA were counted in the dentate gyrus (including granular cell layer and hilus) from three different consecutive medial brain sections. […]

The test system of test [4] is old mice (~20 months). Description: Open field test (OF). The following applies: single bilateral intrahippocampal (hilus) injection, 2µl per site; tested one week after surgery; versus vehicle. The method, then:
as §1, §2
Both open field (OF) and novel object recognition (NOR) tests were performed as described previously (Rodríguez-Matellán A, et al., In Vivo Reprogramming Ameliorates Aging Features in Dentate Gyrus Cells and Improves Memory in Mice. Stem Cell Reports. 2020 Nov 10;15(5):1056-1066. ). Locomotor activity as well as anxiety and depression-like behaviours in old mice were evaluated using OF. This test was used as habituation of NOR test. In brief, on the first day, the mice were placed individually for 10 min in a 45x45-cm plastic box with vertical opaque walls. Each session was recorded and different data like distance, speed, immobile time and time on center square of the box were analysed with Anymaze software. On the second day, mice were placed in the same box for 5 min, allowing them to explore two identical objects: A and B (two black rooks). […]

Test [5] concerns old mice (~20 months). Nature of the test: Y maze test for spatial memory. The settings on record: percentage of time in novel arm; single intrahippocampal injection; two weeks after surgery; versus vehicle. Here is the method: as §1, with “performing. […]” for “performing.”
To assess spatial memory, an Y maze test based on published protocols with modifications (Kraeuter AK, et al. The Y-Maze for Assessment of Spatial Working and Reference Memory in Mice. Methods Mol Biol. 2019;1916:105-111. ) was performed. […] The number of entries into and the time spent in each arm, were registered from video recordings and analysed by AnyMaze software. […]

Test [6] concerns neuronal precursors cells. Description: Adult neurogenesis markers in dentate gyrus, immunofluorescence cell density. The following applies: subgranular zone; unique dose hippocampal injection; versus vehicle. Here is the method:
as §1, §2
Mice received three injections each 2 hours (200 ul/injection, in alternative sides of body) of 5-Chloro-2'-deoxy-Uridine (CldU, Sigma reference C6891; i.p. 42.75 mg/Kg bw) one week after cranial surgery and microinjections of solutions. In this way we were able to follow the effects of treatment in the proliferation of new cells at the subgranular zone, essential zone for neurogenesis process. […]
as §3

Test [7] has as its system H3K9me3. Nature of the test: Histone methylation immunofluorescence in dentate gyrus. The settings on record: 14 days since injection, versus vehicle. Here is the method: as §1
(§4) After anesthesia with isofluorane, mice were secured in a stereotaxic frame (Kopf). […]
(§5) For 5mC, H3K9me3 and H4K20me3 antibodies, acquisition confocal settings (laser intensity, gain, pinhole) were kept constant for all images, which were captured in the same confocal session. […] The area above the threshold was then measured in Fiji and the mean fluorescence in the ROI was calculated and compared between vehicle and folate experimental groups.

For test [8], the system named is H4K20me3. The test is described as above. The settings on record: 14 days since injection, versus vehicle. The method, then: as §1, §4, §5
Test [9] concerns 5-methycytosine (5mC). Nature of the test: DNA methylation immunofluorescence in hippocampal neurons. The settings on record: versus vehicle. The method, then:
as §1
as §2, with “After injections were completed, the skin was sutured and the animals were allowed to recover for 1 h on a heating pad before returning to the home cage. Mice remained in the home cage for an additional 1 week before the start of behavioral testing, being sacrificed 2 weeks after surgery.” left out
as §5

In test [10] the test system is 5-hydroxymethylcytosine (5hmc). Description: DNA hydroxymethylation in hippocampal neuronal layers. The following applies: versus vehicle. The method, then:
as §1
(§6) After anesthesia with isofluorane, mice were secured in a stereotaxic frame (Kopf). Holes were drilled bilaterally in the skull at the injection sites (one per hemisphere) by microdrill with 0.5 mm drill bit. Stereotaxic coordinates used for intrahippocampal injections were as follows (from bregma): anterior-posterior 2.2, lateral 1.4, dorsoventral 2.0. […]

Test [11] concerns Dnmt1. Description: Western blot of Dnmt1 in hippocampal extracts. The settings on record: western blot densitometry; versus vehicle. Here is the method: as §1, §4
Mice were anesthetized with an intraperitoneal pentobarbital injection (Dolethal, 60 mg/kg body weight) and transcardially perfused with saline. […] Serial parasagittal sections ([…] thick) were cryoprotected in 30% sucrose solution in PB and stored in ethylene glycol/glycerol at […] until they were analyzed. […]
For orientation: Immunoblotting shows a protein as a band on a membrane.

The subject of test [12] is Sox2. Description: Sox2 expression in dentate gyrus, immunoreactivity. The settings on record: different regions of dentate gyrus (hilus, GCL, SGZ); unique-dose injection in aged mice; versus vehicle. Here is the method:
as §1, §6

For `Nc1nc2ncc(CNc3ccc(C(=O)N[C@@H](CCC(=O)O)C(=O)O)cc3)nc2c(=O)[nH]1` [folate, folic acid], in test [1], the “recognition memory at short term” value was “not significant differences” and the “recognition memory at long-term” value is listed as “improves”. Also, in [2], the “expression of GluN2B immunoreactivity (percentage of area occupied)” value is listed as “increase”. Also, the “PNN density labeled with WFA” value in test [3] is listed as “significant reduction”. Besides, in [4], the “anxiety-depression like behavior (central square time)” value is given as “improvement”; the “locomotor activity (distance travelled, speed and immobile time)” value was “improvement”. Also, the spatial memory result in [5] is “improvement”. In addition, in test [6], the doublecortin-ir cell density entry is reported as “neither found differences”, the “early neuronal precursor like blbp-ir cells density” value is reported as “subtle but non-significant tendency of increase”, the “new born CIdU-ir cells density” value is recorded as “subtle but non-significant tendency of increase” and the “one-week-old neurons (double Dcx/CldU-ir cells) density” value was “subtle but non-significant tendency of increase”. Further, the “level of methylation at H3K9me3” value in [7] was “does not modify”. Also, in [8], the “level of methylation at H4K20me3” value is recorded as “does not modify”. Besides, the “level of 5mC, mean intensity” value in test [9] (granular neuronal layer of dentate gyrus (P=0.0132)) is on record as “significant changes”. Further, the “level of 5mC, mean intensity” value in test [9] (pyramidal layer of CA1 (P-value=0.06)) is recorded as “important tendency”. Besides, the “level of 5mC, mean intensity” value in [9] (pyramidal layer of CA3 (P-value=0.05)) was “important tendency”. Besides, in test [10], the “level of 5hmc” value was “not significant changes”. In test [11], the “expression of Dnmt1 hippocampal levels” value is on record as “increased”.

In the case of “CTVRTSAEC (source 1..9: organism (original language) = constructo sintetico) [FRa binding peptide]”, in test [1], the “recognition memory at short term” value is given as “Not significant differences” and the “recognition memory at long-term” value is on record as “significant improvement”. Also, the “expression of GluN2B immunoreactivity (percentage of area occupied)” value in test [2] is listed as “increase”. For the same compound, in test [3], the “PNN density labeled with WFA” value was “reducing the density”. Also, the SOX2 expression entry in test [12] is “significant increase”.

On to Vitamin B12, for which, in test [1], the “recognition memory at short term” value is “not revealed significant differences” and the “recognition memory at long-term” value is given as “not revealed significant differences”. For the same compound, in [4], the “anxiety-depression like behavior (central square time)” value is recorded as “not revealed any alteration”; the “locomotor activity (distance travelled, speed and immobile time)” value is given as “not revealed any alteration”. Further, the spatial memory entry in test [5] was “not revealed significant differences”.
